Source: PubChem BioAssay (NCI)
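At the GI50, growth is halved. TGI denotes the concentration required for complete inhibition of growth.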

Key:
Assay in all cases: NCI tumour cell line growth inhibition, 384-well format
[1] = system: SR leukemia
[2] = system: SNB-19 CNS
[3] = system: OVCAR-3 ovarian
[4] = system: NCI-H23 lung
[5] = system: ACHN renal
[6] = system: NCI/ADR-RES ovarian
[7] = system: KM12 colon
[8] = system: BT-549 breast
[9] = system: OVCAR-8 ovarian
[10] = system: MOLT-4 leukemia
[11] = system: SN12C renal
[12] = system: SF-268 CNS
[13] = system: HOP-62 NSCLC
[14] = system: SNB-75 CNS
[15] = system: CAKI-1 renal
[16] = system: SW-620 colon
[17] = system: RPMI-8226 leukemia
[18] = system: HOP-92 NSCLC
[19] = system: MDA-MB-468 breast
[20] = system: A549 NSCLC
[21] = system: EKVX NSCLC
[22] = system: 786-0 renal
[23] = system: HCC-2998 colon
[24] = system: COLO 205 colon
[25] = system: MCF7 breast
[26] = system: HS 578T breast
[27] = system: PC-3 prostate
[28] = system: HCT-116 colon
[29] = system: CCRF-CEM leukemia
[30] = system: OVCAR-4 ovarian
[31] = system: RXF 393 renal
[32] = system: NCI-H460 NSCLC
[33] = system: UACC-62 melanoma
[34] = system: K-562 leukemia
[35] = system: HCT-15 colon
[36] = system: UO-31 renal
[37] = system: MDA-MB-435 melanoma
[38] = system: MALME-3M melanoma
[39] = system: TK-10 renal
[40] = system: SK-MEL-28 melanoma
[41] = system: OVCAR-5 ovarian
[42] = system: M14 melanoma
[43] = system: SK-MEL-2 melanoma
[44] = system: IGROV1 ovarian
[45] = system: HL-60(TB) leukemia
[46] = system: LOX IMVI melanoma
[47] = system: MDA-MB-231 breast
[48] = system: SK-MEL-5 melanoma
[49] = system: A498 renal
[50] = system: NCI-H322M lung
[51] = system: T-47D breast
[52] = system: HT29 colon
[53] = system: SF-539 CNS
[54] = system: NCI-H522 lung
[55] = system: SF-295 CNS
[56] = system: NCI-H226 lung
[57] = system: DU-145 prostate
[58] = system: UACC-257 melanoma
[59] = system: U251 glioblastoma

CCS(=O)(=O)N1CCN(c2ccc(Nc3ncc(C(N)=O)c(NC4CC4)n3)cc2)CC1
GI50 [1]: 0.368 µM
TGI [1]: 1.29 µM
GI50 [2]: 8.88 µM
TGI [2]: > 100 µM
GI50 [3]: 2.61 µM
TGI [3]: 7.63 µM
GI50 [4]: 1.29 µM
TGI [4]: 4.25 µM
GI50 [5]: 4.3 µM
TGI [5]: > 100 µM
GI50 [6]: 7.08 µM
TGI [6]: 28.6 µM
GI50 [7]: 0.44 µM
TGI [7]: 12 µM
GI50 [8]: 1.1 µM
TGI [8]: 2.51 µM
GI50 [9]: 0.371 µM
TGI [9]: 1.4 µM
GI50 [10]: 0.381 µM
TGI [10]: 1.54 µM
GI50 [11]: 1.76 µM
TGI [11]: 10.2 µM
GI50 [12]: 1.9 µM
TGI [12]: 21.5 µM
GI50 [13]: 1.89 µM
TGI [13]: 5.01 µM
GI50 [14]: 4.03 µM
TGI [14]: 8.56 µM
GI50 [15]: 6.05 µM
TGI [15]: > 100 µM
GI50 [16]: 44.9 µM
TGI [16]: > 100 µM
GI50 [17]: 0.155 µM
TGI [17]: 0.401 µM
GI50 [18]: 3.72 µM
TGI [18]: 14.9 µM
GI50 [19]: 2.05 µM
TGI [19]: 3.75 µM
GI50 [20]: 1.83 µM
TGI [20]: > 100 µM
GI50 [21]: 1.92 µM
TGI [21]: 10.2 µM
GI50 [22]: 1.6 µM
TGI [22]: 3.41 µM
GI50 [23]: 2.5 µM
TGI [23]: 5.15 µM
GI50 [24]: 0.485 µM
TGI [24]: 2.18 µM
GI50 [25]: 1.41 µM
TGI [25]: 22.3 µM
GI50 [26]: 2.01 µM
TGI [26]: 4.45 µM
GI50 [27]: 10.4 µM
TGI [27]: > 100 µM
GI50 [28]: 3.72 µM
TGI [28]: 91.1 µM
GI50 [29]: 0.366 µM
TGI [29]: 1.27 µM
GI50 [30]: 2.06 µM
TGI [30]: 5.72 µM
GI50 [31]: 1.51 µM
TGI [31]: 3.73 µM
GI50 [32]: 3.17 µM
TGI [32]: 51.7 µM
GI50 [33]: 9.42 µM
TGI [33]: 23.9 µM
GI50 [34]: 2.06 µM
TGI [34]: 8.1 µM
GI50 [35]: 1.58 µM
TGI [35]: 3.27 µM
GI50 [36]: 2.92 µM
TGI [36]: > 100 µM
GI50 [37]: 1.63 µM
TGI [37]: 8.98 µM
GI50 [38]: 0.539 µM
TGI [38]: 4.14 µM
GI50 [39]: 2.2 µM
TGI [39]: 5.5 µM
GI50 [40]: 2.93 µM
TGI [40]: 50.7 µM
GI50 [41]: 4.25 µM
TGI [41]: 18.7 µM
GI50 [42]: 0.301 µM
TGI [42]: 3.42 µM
GI50 [43]: 1.87 µM
TGI [43]: 3.89 µM
GI50 [44]: 2.82 µM
TGI [44]: 16.3 µM
GI50 [45]: 0.418 µM
TGI [45]: 2.04 µM
GI50 [46]: 2.01 µM
TGI [46]: 13.3 µM
GI50 [47]: 2.93 µM
TGI [47]: 33.6 µM
GI50 [48]: 1.39 µM
TGI [48]: 4.65 µM
GI50 [49]: 1.68 µM
TGI [49]: 5.19 µM
GI50 [50]: 1.59 µM
TGI [50]: 3.93 µM
GI50 [51]: 2.23 µM
TGI [51]: 4.43 µM
GI50 [52]: 4.09 µM
TGI [52]: 56.4 µM
GI50 [53]: 1.18 µM
TGI [53]: 2.73 µM
GI50 [54]: 0.674 µM
TGI [54]: 4.97 µM
GI50 [55]: 1.26 µM
TGI [55]: 3.43 µM
GI50 [56]: 0.633 µM
TGI [56]: 10.6 µM
GI50 [57]: 2.82 µM
TGI [57]: 18.8 µM
GI50 [58]: 10.2 µM
TGI [58]: 63 µM
GI50 [59]: 6.79 µM
TGI [59]: > 100 µM
